Where two headings read alike, the source gives them in different places.
Key:
A2780 cells [1] = experiment: MTT cellular viability assay, A2780; assay type: cell-based, human; conditions: 72 h
Method: (§1) Cell lines A2780 (human ovarian carcinoma, ECACC cat. No. 93112519), A2780cis (subline resistant to cisplatin, ECACC cat. No. 93112517), Toledo (human diffuse large cell lymphoma, ATCC CRL-2631TM), and Toledo-cis (cisplatin-resistant subline obtained from Toledo in our laboratory) were cultured in RPMI-1640 medium (Biological Industries, Kibbutz Beit-Haemek, Israel) supplemented with 10% heat-inactivated fetal bovine serum, 5 mM Hepes, and 50 µg/mL gentamycin. All cell lines were maintained in a humidified incubator, at 37 °C and 5% CO2. The cell lines A2780 and A2780cis were grown as monolayers, and cultures were detached with trypsin and renewed every 3–4 days. Toledo and Toledo-cis were grown in suspension; the cultures were renewed every 3–4 days. The Toledo cell line was kindly provided by Prof. Piotr Smolewski from the Department of Experimental Hematology, Medical University of Lodz, ul Ciołkowskiego 2, 93–510 Łódź, Poland, on the conditions of collaboration. […]
(§2) The cancer cells were seeded in 24-well plates, with 1 mL of cell suspension per well, in the following densities: A2780—10^4 cells/mL; A2780cis—1.5 × 10^4 cells/mL; and Toledo and Toledo-cis—5 × 10^4 cells/mL. […] The absorbance was measured at 540 nm on a Spectrostar Nano spectrophotometer with a microplate reader (BMG Labtech, Ortenberg, Germany). […]

A2780cis cells [2] = experiment: MTT cellular viability assay, A2780cis; assay type: cell-based, human; conditions: for IC50: A2780cis, MTT, 72 h; for RF (IC50 A2780cis/IC50 A2780): Resistance factor defined as IC50(resistant)/IC50(sensitive)
Method: (§3) Cell lines A2780 (human ovarian carcinoma, ECACC cat. No. 93112519), A2780cis (subline resistant to cisplatin, ECACC cat. […] All cell lines were maintained in a humidified incubator, at 37 °C and 5% CO2. The cell lines A2780 and A2780cis were grown as monolayers, and cultures were detached with trypsin and renewed every 3–4 days. Toledo and Toledo-cis were grown in suspension; the cultures were renewed every 3–4 days. The Toledo cell line was kindly provided by Prof. […] The cancer cells were seeded in 24-well plates, with 1 mL of cell suspension per well, in the following densities: A2780—10^4 cells/mL; […] Lymphocytes were seeded in 48-well plates, 0.5 mL of cell suspension per well, at −2 × 10^5 cells/mL. The cultures were left overnight to adapt. The next day, the tested compounds were added, pre-dissolved in DMF, and then in a complete culture medium, at concentrations two-fold higher than the final ones. The resulting solutions were added to cell cultures to obtain the demanded concentration. Stock solutions of the compounds were freshly made before every experiment. The final concentration of the solvents in culture medium was 0.2% v/v. […] Then the culture medium was removed, and the purple formazan crystals were dissolved in DMSO. The absorbance was measured at 540 nm on a Spectrostar Nano spectrophotometer with a microplate reader (BMG Labtech, Ortenberg, Germany). The experiments were performed at least in triplicate. The results were transformed to relative values, as the percentage of the solvent control (assumed as 100%) to subtract any toxic effect of DMF.

Toledo cells [3] = experiment: MTT cellular viability assay, Toledo; assay type: cell-based, human; conditions: 72 h
Method: as §1, §2

Toledo-cis cells [4] = experiment: MTT cellular viability assay, Toledo-cis; assay type: cell-based, human; conditions: for IC50: Toledo-cis, MTT, 72 h; for RF (IC50 Toledo-cis/IC50 Toledo): Resistance factor defined as IC50(resistant)/IC50(sensitive)
Method: as §3

human lymphocytes [5] = experiment: MTT cellular viability assay, normal lymphocytes; assay type: cell-based; conditions: for IC50: Lymphocytes, MTT, 72 h; for times less toxic for normal lymphocytes in comparison to cisplatin: relative to cisplatin
Method: The buffy coat fraction of peripheral blood from healthy donors was purchased from the Regional Blood Bank in Lodz, Poland. Mononuclear blood cells were isolated using Lympho-Sep tubes (Biological Industries, Israel). Lymphocytes were cultured in RPMI-1640 medium (Biological Industries, Israel) supplemented with 10% heat-inactivated fetal bovine serum, phytohemaglutinin M solution (PHA-M, Biological Industries), 5 mM Hepes, and 50 µg/mL gentamycin. The cancer cells were seeded in 24-well plates, with 1 mL of cell suspension per well, in the following densities: A2780—10^4 cells/mL; […] Lymphocytes were seeded in 48-well plates, 0.5 mL of cell suspension per well, at −2 × 10^5 cells/mL. The cultures were left overnight to adapt. The next day, the tested compounds were added, pre-dissolved in DMF, and then in a complete culture medium, at concentrations two-fold higher than the final ones. The resulting solutions were added to cell cultures to obtain the demanded concentration. Stock solutions of the compounds were freshly made before every experiment. The final concentration of the solvents in culture medium was 0.2% v/v. […] Then the culture medium was removed, and the purple formazan crystals were dissolved in DMSO. The absorbance was measured at 540 nm on a Spectrostar Nano spectrophotometer with a microplate reader (BMG Labtech, Ortenberg, Germany). The experiments were performed at least in triplicate. The results were transformed to relative values, as the percentage of the solvent control (assumed as 100%) to subtract any toxic effect of DMF.

A2780 cells [6] = system: A2780 cells; design: method as in doi:10.1016/j.ica.2016.11.021; conditions: cited from earlier work
A2780cis cells [7] = system: A2780cis cells; design: method as in doi:10.1016/j.ica.2016.11.021; conditions: MTT, 72 h, reposted from previous paper; cited from earlier work
Toledo cells [8] = system: Toledo cells; design: method as in doi:10.1016/j.ica.2016.11.021; conditions: cited from earlier work
Toledo-cis cells [9] = system: Toledo-cis cells; design: method as in doi:10.1016/j.ica.2016.11.021; conditions: MTT, 72 h, reposted from previous paper; cited from earlier work
human lymphocytes [10] = system: human lymphocytes; design: method as in doi:10.1016/j.ica.2016.11.021; conditions: MTT, 72 h, reposted from previous paper; cited from earlier work
human topoisomerase I = target: T1, human topoisomerase I (Homo sapiens, UniProt P11387); experiment: Topoisomerase I drug screening (plasmid based), gel electrophoresis; assay type: biochemical; conditions: scDNA + topo1; tested compounds 10-20 µM, camptothecin 100 µM
T1 construct: purchased TopoGen, Buena Vista, CO, USA
T1 sequence (P11387 1-765): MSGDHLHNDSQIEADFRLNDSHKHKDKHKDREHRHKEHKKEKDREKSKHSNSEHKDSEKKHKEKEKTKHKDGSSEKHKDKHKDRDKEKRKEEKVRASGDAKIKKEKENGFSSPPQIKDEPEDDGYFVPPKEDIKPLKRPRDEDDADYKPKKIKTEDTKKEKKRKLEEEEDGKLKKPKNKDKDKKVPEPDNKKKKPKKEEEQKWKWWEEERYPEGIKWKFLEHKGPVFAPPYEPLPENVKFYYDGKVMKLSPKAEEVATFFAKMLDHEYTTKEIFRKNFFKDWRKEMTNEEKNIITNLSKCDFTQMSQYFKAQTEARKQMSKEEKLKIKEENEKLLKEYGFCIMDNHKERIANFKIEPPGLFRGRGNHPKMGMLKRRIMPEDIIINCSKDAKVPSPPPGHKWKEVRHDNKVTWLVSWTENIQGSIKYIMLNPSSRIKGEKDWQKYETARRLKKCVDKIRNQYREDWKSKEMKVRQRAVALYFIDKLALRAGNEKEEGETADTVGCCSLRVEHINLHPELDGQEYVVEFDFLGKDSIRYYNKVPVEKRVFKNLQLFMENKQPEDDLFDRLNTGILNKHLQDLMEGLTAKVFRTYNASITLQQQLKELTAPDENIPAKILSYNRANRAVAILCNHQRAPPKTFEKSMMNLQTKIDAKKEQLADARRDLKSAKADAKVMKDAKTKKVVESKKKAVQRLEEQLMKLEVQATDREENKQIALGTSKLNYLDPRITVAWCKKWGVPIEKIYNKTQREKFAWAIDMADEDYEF
Method: The test procedure was carried out according to the manufacturer′s instructions (Topoisomerase I Drug Screening Kit(plasmid based) TopoGen/Topoisomerase II Drug Screening Kit (plasmid based) (TopoGen, Buena Vista, CO, USA). A reaction mixture with appropriate concentrations of water and buffer and 1–0.5 mL of DNA (plasmid) was prepared. Then, the tested compounds dissolved in DMSO were added. A solvent control test was also performed. Finally, an enzyme in the indicated amount was added to the mixture. The whole was incubated at 37 °C for 30 min. Then, the reaction was stopped by adding 2 μL of detergent-SDS (sodium dodecyl sulfate). Proteinase K solution (50 μg/mL) was then added and incubated at 37 °C for 15 min. After that time, a loading buffer (bromophenol blue and glycerol) was added to the samples and then applied to a 1% agarose gel. Electrophoresis was carried out in TAE (Tris Acetate-EDTA) buffer, which was obtained by mixing 40 mM Tris Acetate, 1 mM EDTA, and diluting with water. It was carried out for 4–5 h at 2 V/cm. For the Topo I assay, two types of gel were prepared: non-EB (Figure 8A) and EB gel (Figure 8B). Non-EB gels were stained with EB (0.5 ug/mL) for 15–30 min and then destained in water or buffer for 15 min prior to photodocumentation. […]

A2780 and A2780cis cells [11] = experiment: Annexin V apoptosis assay (flow cytometry); assay type: cell-based, human; conditions: 2 h and 4 h incubation, compared to untreated cells
Method: The apoptotic cells were identified by flow cytometry using the Annexin-V/FITC (BDBiosciences, San Diego, CA, USA) assay according to the manufacturer’s instructions. […] PI only stains the nuclei of damaged cells with permeable plasma membranes. Briefly, the cells were incubated with tested compounds for 2 and 4 h. After incubation, the cells were washed twice with cold PBS and then resuspended in 100 μL of binding buffer, containing 2 μL of FITC conjugated annexin-V and 10 μg mL^−1 of PI (Becton-Dickinson, San Jose, CA, USA). Then, the preparations were incubated at room temperature, protected from light, for 15 min. Fluorescence was measured immediately after staining by flow cytometry using FL1 (green, annexin-V) and FL3 (red, PI) standard fluorescent filters.

A2780 and A2780cis cells [12] = experiment: Mitochondrial potential loss measurement (MitoTracker Red, flow cytometry); assay type: cell-based, human; conditions: 2 h and 4 h incubation
Method: The loss of mitochondrial transmembrane potential (ΔΨm) occurs early during apoptosis and is often considered as a marker of apoptosis activated by the mitochondrial pathway. MitoTracker Red (Invitrogen, Waltham, MA, USA) dye was used as a probe for ΔΨm, which accumulates in the active mitochondria of living cells: 50 nM, 20 min incubation, at RT. The reduction of Δ Ψm was detected by flow cytometry as a decrease in red fluorescence of the dye in treated cells as compared to untreated cells.

[13] = system: panel of cancer cells and human lymphocytes; experiment: MTT cellular viability assay, all tested cell lines; assay type: cell-based; conditions: range over all tested cell lines, 72 h, read-out: IC50 values towards all tested cell lines
Method: as §1, §2

[14] = A2780, MTT, 72 h, reposted from previous paper
[15] = MTT, 72 h, reposted from previous paper

SMILES	RF (IC50 A2780cis/IC50 A2780) (A2780cis cells [2])	RF (IC50 Toledo-cis/IC50 Toledo) (Toledo-cis cells [4])	times less toxic for normal lymphocytes in comparison to cisplatin (human lymphocytes [5])	IC50 (A2780 cells [6]; [14])	IC50 (A2780cis cells [7])	IC50 (Toledo cells [8]; [15])	IC50 (Toledo-cis cells [9])	IC50 (human lymphocytes [10])	percentage of Ann-V positive cells (A2780 and A2780cis cells [11])	loss of mitochondrial membrane potential (A2780 and A2780cis cells [12])	also measured
Nc1c(-c2ccccc2)oc2ccccc2c1=O [Ligand, 3-aminoflavone, reference compound]											IC50 (A2780 cells [1]; Homo sapiens): > 100 µM; IC50 (A2780cis cells [2]; Homo sapiens): > 100 µM; IC50 (Toledo cells [3]; Homo sapiens): > 100 µM; IC50 (Toledo-cis cells [4]; Homo sapiens): > 100 µM; IC50 (human lymphocytes [5]; Homo sapiens, Lymphocyte): > 100 µM
CCOC1(c2ccccc2)Oc2ccccc2C(=O)C1=N.CCOC1(c2ccccc2)Oc2ccccc2C(=O)C1=N.[Cl][Ru][Cl] (stereo not drawn) [138 (3), cis-dichlorobis(3-imino-2-ethoxyflavanone)ruthenium(II)]	0.8	4.6	7 times	1.8 ± 0.1 µM	1.5 ± 0.4 µM	0.6 ± 0.04 µM	2.8 ± 0.1 µM	1.6 ± 0.1 µM			
CC[C@@]1(O)C(=O)OCc2c1cc1n(c2=O)Cc2cc3ccccc3nc2-1 [camptothecin]											inhibition of topoisomerase I / DNA band pattern (human topoisomerase I): presence of open circular DNA
N.N.[Cl][Pt][Cl] [Cisplatin (1), cis-diamminedichloroplatinum (II), reference compound]	84	17		0.2 ± 0.1 µM	16.8 ± 1.5 µM	0.5 ± 0.07 µM	8.3 ± 0.6 µM	0.2 ± 0.1 µM	did not cause similar changes	much lower influence	RF (IC50 Toledo-cis/IC50 Toledo) (Toledo-cis cells [4]; listed as cisplatin): about 17; IC50 (A2780 cells [6]; A2780, text value): < 1 µM; IC50 (Toledo cells [8]): < 1 µM
Nc1c(-c2ccccc2)oc2ccccc2c1=O.Nc1c(-c2ccccc2)oc2ccccc2c1=O.[Cl][Pt][Cl] [TCAP(4), trans-dichlorobis(3-aminoflavone)platinum(II)]	2.3	1.4	60 times						did not cause similar changes	much lower influence	IC50 (A2780 cells [1]): 6.5 ± 0.3 µM; IC50 (A2780cis cells [2]): 15.1 ± 0.6 µM; IC50 (Toledo cells [3]): 8.8 ± 0.8 µM; IC50 (Toledo-cis cells [4]): 12.6 ± 1.2 µM; IC50 (human lymphocytes [5]): 11.9 ± 0.7 µM; IC50 [13]: 6.5 to 15.1 µM
COC1(c2ccccc2)Oc2ccccc2C(=O)C1=N.COC1(c2ccccc2)Oc2ccccc2C(=O)C1=N.[Cl][Ru][Cl] (stereo not drawn) [134 (2), cis-dichlorobis(3-imino-2-methoxyflavanone)ruthenium(II)]	1.8	5.8	3 times	2.5 ± 0.2 µM	4.6 ± 0.2 µM	0.5 ± 0.1 µM	2.9 ± 0.2 µM	3.4 ± 0.3 µM			

From publication PMC8306828 (International Journal of Molecular Sciences, 2021)
